Reference: US20050165225A1, “Novel cytokine isolated from an insect” (priority 2003, published 2005)
Where no end group is shown, it is not given here.

Columns and labels:
[1] = system: hemocytes of a fly (Lucilia cuprina); assay: Hemocyte aggregation assay; type: cell-based; details: 10 nM test substance, incubated for about 20 minutes, L. cuprina larval hemocytes, microscopy (FIG. 2)
Description: Preparation of Hemolymph for Use in Functional Analysis
Blood (hemolymph) was taken from the 3rd instar flies (Lucilia cuprina) after 24 to 36 hours from molting in an anti-coagulant solution (98 mM NaOH, 186 mM NaCl, 17 mM Na2 EDTA and 41 mM citric acid, pH 4.5). Hemolymph was obtained as sediment by centrifuging at 400 g for one minute, suspended in the anti-coagulation solution, incubated at 4° C. for 30 minutes, and subjected to centrifugal separation at 400 g for one minute to collect hemolymph. The hemolymph thus collected was resuspended in Ex-cell 400 medium (manufactured by JRH bioscience, USA)
Using hemolymph prepared above, an ability of a peptide according to the present invention for aggregating hemocytes was evaluated. 5 μl of a test substance (so as to obtain a final concentration of 10 nM) and 30 μl of a blood cell suspension solution were delivered to 96 wells of a culture plate so as to obtain a cell concentration of 1×10^4 cells/well. As the test substance, a peptide according to the present invention (a final concentration of 10 nM) or bovine serum albumin (a final concentration of 10 nM) as a control was used. The mixture was observed by an inverted phase-contrast microscope (Olympus IX-70) to detect hemocyte aggregation.

High five cells = assay: Cell proliferation assay ([3H] thymidine incorporation); type: cell-based, Trichoplusia ni; details: serum-free Grace's medium, test substance ~1,000 nM, cultured 32 hours (FIG. 3)
Description: Cultured insect cells of “High five” was purchased from Invitrogen (Holland) and maintained in Grace's medium containing 5% fetus bovine serum. The cells during the exponential growth period were used in the following treatment. After the cells were cultured in a culture solution containing only Grace's medium (with no fetus bovine serum) for 2 days, they were divided into two groups. To one group (novel cytokine group), a peptide according to the present invention was added as a test substance in an amount of ˜1,000 nM. To the other group (control group), bovine serum albumin (BSA) was added as a test substance in an amount of ˜1000 nM. Both groups were cultured for 32 hours in Grace's medium containing 0.5 μCi of [^3H] thymidine. Subsequently, Both groups of cells were washed three times with a phosphate buffered saline (8 mM Na2HPO4, 1.5 mM KH2PO4, 137 mM NaCl, 2.7 mM KCL, pH 7.2). Thereafter, 100 μl of 0.3 N NaOH was added to both groups of cells to lyse the cells. The lysed cells were subjected to the liquid scintillation counter (Aloka LSC-5100 manufactured by Aloka, Japan). In this way, the radioactive count of [^3H] thymidine, which had been incorporated in the cells of each group during culturing, was determined.

Substance | hemocyte aggregation [1] | [^3H] thymidine incorporation (High five cells)
bovine serum albumin (BSA): bovine serum albumin used as a control test substance | scattered without causing aggregation | not increased
TILSAPSNCQQTDFKGRCL (cysteine pairing not given here) [19-residue peptide cytokine purified from hemolymph of Lucilia cuprina larvae] | hemocyte aggregation is observed | increased in a pepetide-concentration dependent manner
